Source: patent US20040063763A1, “2-METHOXYIMINO-2(PYRIDINYLOXYMETHYL)PHENYL ACETAMIDES USEFUL AS FUNGICIDES” (priority 2003, published 2004)

Legend:
Format in all cases: in vivo
Puccinia recondita = test: Brown rust of wheat 1-day protectant whole plant test (PUCCRT 1DP); details: 100 ppm spray to run off, wheat (cultivar Monon), inoculated after 24 hours
Erysiphe graminis = test: Powdery Mildew of Wheat 1-day protectant whole plant test (ERYSGT 1DP); details: 100 ppm spray to run off, wheat (cultivar Monon), inoculated after 24 hours
Phytophthora infestans = details: 100 ppm spray to run off, tomatoes (cultivar Rutgers), inoculated after 24 hours

CNC(=O)/C(=N/OC)c1ccccc1COc1ncc(C2=NOCC2)cc1C [Compound 1, (2E)-2-[2˜({[5-(4,5-dihydroisoxazol-3-yl)-3-methylpyridin-2-yl]oxy}methyl)phenyl]-2-(methoxyimino)-N-methylethanamide]
>95%: PUCCRT 1DP percent control of the plant disease (Puccinia recondita) | ERYSGT 1DP percent control of the plant disease (Erysiphe graminis) | PHYTIN 1DP percent control of the plant disease (Phytophthora infestans)
